Laboratory results from publication PMC11149339, “Necessity for higher teicoplanin doses in older adults: a multicenter prospective observational study in China” (BMC Geriatrics, 2024).

Assay: Therapeutic drug monitoring of teicoplanin trough concentration (Cmin) during treatment, LC-MS/MS
Assay type: in vivo, human
Settings: for patients with TDM 10–20 mg/L At 8-14d, N (%) / patients with TDM < 10 mg/L At 8-14d, N (%) / patients with TDM > 20 mg/L At 8-14d, N (%) / TDM At 8-14d (teicoplanin trough concentration): 8–14 days after first dose; for TDM At 8-14d (teicoplanin trough concentration) / TDM At 3d (teicoplanin trough concentration): median [IQR], LC-MS/MS; for patients with TDM 10–20 mg/L At 3d, N (%) / patients with TDM < 10 mg/L At 3d, N (%) / patients with TDM > 20 mg/L At 3d, N (%) / TDM At 3d (teicoplanin trough concentration): 3 days after first dose
Description: Teicoplanin (Targocid, Sanofi, Dublin, Ireland) was administered intravenously for 30 min. The prescribed dose regimens were at the discretion of treating physicians, and the recommended regimens were not always followed.
Blood samples (5 mL) were collected from the elbow into ethylenediaminetetraacetic acid-containing Vacutainers® (Becton Dickinson, Milan, Italy) in the morning before teicoplanin administration and after drug withdrawal. Samples were promptly refrigerated and centrifuged at 2500 × g for 10 min before 2 mL of supernatant was preserved at -20 °C for subsequent analysis. Teicoplanin concentrations were determined using liquid chromatography-tandem mass spectrometry. The linear range of the method was 1.0–100.0 mg/L, and the lower limit of quantification was 1.0 mg/L. The relative standard deviation of intra- and inter-batch precision was ≤ 10%.
Teicoplanin concentrations were dynamically monitored. Concentrations at 3, ≤ 7, 8–14, and ≥ 15 days after the first dose and within 2 h of the next scheduled dose were recorded as TDM3d, TDM≤7d, TDM8-14d, and TDM≥15d, respectively. Concentrations at 3, ≤ 7, 8–14, and ≥ 15 days after the last teicoplanin dose (withdrawal) were recorded as TDMw3d, TDMw≤7d, TDMw8-14d, and TDMw≥15d. respectively (Fig. 1a). The Cmin target was ≥ 10 mg/L [6, 7, 23]; a concentration < 10 mg/L was considered suboptimal. Average TDM (TDMa) was defined as the mean Cmin after 3 days of treatment.

[1] = LR-A + MR-A (200 mg once daily, then 200 mg once daily)
[2] = LR-B + MR-A (400 mg once daily, then 200 mg once daily)
[3] = LR-B + MR-B (400 mg once daily, then 400 mg once daily)
[4] = LR-C + MR-B (400 mg at 12-h intervals, then 400 mg once daily)
[5] = LR-C + MR-C (400 mg at 12-h intervals, then 400 mg twice daily)

Substance: Teicoplanin
- patients with TDM 10–20 mg/L At 8-14d, N (%) (LR-A + MR-A): 20(41.7)
- patients with TDM < 10 mg/L At 8-14d, N (%) (LR-A + MR-A): 22(45.8)
- patients with TDM > 20 mg/L At 8-14d, N (%) (LR-A + MR-A): 6(12.5)
- TDM At 8-14d (teicoplanin trough concentration) [1]: 10.4[7.3,17.8] mg/L
- patients with TDM 10–20 mg/L At 8-14d, N (%) (LR-B + MR-A): 25(53.2)
- patients with TDM < 10 mg/L At 8-14d, N (%) (LR-B + MR-A): 16(34.0)
- patients with TDM > 20 mg/L At 8-14d, N (%) (LR-B + MR-A): 6(12.8)
- TDM At 8-14d (teicoplanin trough concentration) [2]: 11.0[7.3,15.4] mg/L
- patients with TDM 10–20 mg/L At 8-14d, N (%) (LR-B + MR-B): 2(50.0)
- patients with TDM < 10 mg/L At 8-14d, N (%) (LR-B + MR-B): 1(25.0)
- patients with TDM > 20 mg/L At 8-14d, N (%) (LR-B + MR-B): 1(25.0)
- TDM At 8-14d (teicoplanin trough concentration) [3]: 12.8[9.0,21.5] mg/L
- patients with TDM 10–20 mg/L At 8-14d, N (%) (LR-C + MR-B): 8(57.2)
- patients with TDM < 10 mg/L At 8-14d, N (%) (LR-C + MR-B): 5(35.7)
- patients with TDM > 20 mg/L At 8-14d, N (%) (LR-C + MR-B): 1(7.1)
- TDM At 8-14d (teicoplanin trough concentration) [4]: 14.16[8.9,16.4] mg/L
- patients with TDM 10–20 mg/L At 8-14d, N (%) (LR-C + MR-C): 3(37.5)
- patients with TDM < 10 mg/L At 8-14d, N (%) (LR-C + MR-C): 0
- patients with TDM > 20 mg/L At 8-14d, N (%) (LR-C + MR-C): 5(62.5)
- TDM At 8-14d (teicoplanin trough concentration) [5]: 21.2[16.8,27.4] mg/L
- TDM At 8-14d (teicoplanin trough concentration) (all patients (N = 204), iv): 11.1[8.5,17.6] mg/L
- patients with TDM 10–20 mg/L At 3d, N (%) (LR-A + MR-A): 0
- patients with TDM < 10 mg/L At 3d, N (%) (LR-A + MR-A): 16(100)
- patients with TDM > 20 mg/L At 3d, N (%) (LR-A + MR-A): 0
- TDM At 3d (teicoplanin trough concentration) [1]: 5.4[3.0,7.7] mg/L
- patients with TDM 10–20 mg/L At 3d, N (%) (LR-B + MR-A): 2(10.5)
- patients with TDM < 10 mg/L At 3d, N (%) (LR-B + MR-A): 17(89.5)
- patients with TDM > 20 mg/L At 3d, N (%) (LR-B + MR-A): 0
- TDM At 3d (teicoplanin trough concentration) [2]: 6.3[4.4,7.9] mg/L
- patients with TDM 10–20 mg/L At 3d, N (%) (LR-B + MR-B): 1(16.7)
- patients with TDM < 10 mg/L At 3d, N (%) (LR-B + MR-B): 3(50.0)
- patients with TDM > 20 mg/L At 3d, N (%) (LR-B + MR-B): 2(33.3)
- TDM At 3d (teicoplanin trough concentration) [3]: 11.1[8.1,22.2] mg/L
- patients with TDM 10–20 mg/L At 3d, N (%) (LR-C + MR-B): 5(62.5)
- patients with TDM < 10 mg/L At 3d, N (%) (LR-C + MR-B): 3(37.5)
- patients with TDM > 20 mg/L At 3d, N (%) (LR-C + MR-B): 0
- TDM At 3d (teicoplanin trough concentration) [4]: 11.0[7.0,13.3] mg/L
- patients with TDM 10–20 mg/L At 3d, N (%) (LR-C + MR-C): 7(50.0)
- patients with TDM < 10 mg/L At 3d, N (%) (LR-C + MR-C): 3(21.4)
- patients with TDM > 20 mg/L At 3d, N (%) (LR-C + MR-C): 4(28.6)
- TDM At 3d (teicoplanin trough concentration) [5]: 14.4[10.7,21.1] mg/L
- TDM At 3d (teicoplanin trough concentration) (all patients (N = 204), iv): 7.7[5.6,12.4] mg/L
- target concentration achievement rate (≥ 10 mg/L) (TDM8-14d, LR-A + MR-A regimen): 54.2%
- target concentration achievement rate (≥ 10 mg/L) (TDM8-14d, LR-B + MR-A regimen): 66.0%
- target concentration achievement rate (≥ 10 mg/L) (TDM8-14d, LR-B + MR-B regimen): 75.0%
- target concentration achievement rate (≥ 10 mg/L) (TDM8-14d, LR-C + MR-C regimen): 100%
- target concentration achievement rate (≥ 10 mg/L) (TDM3d, LR-A + MR-A regimen): 0%
- target concentration achievement rate (≥ 10 mg/L) (TDM3d, LR-B + MR-A regimen): 10.5%
- target concentration achievement rate (≥ 10 mg/L) (TDM3d, LR-B + MR-B regimen): 50.0%
- target concentration achievement rate (≥ 10 mg/L) (TDM3d, LR-C + MR-B regimen): 62.5%
- target concentration achievement rate (≥ 10 mg/L) (TDM3d, LR-C + MR-C regimen): 78.6%
- target concentration achievement rate (≥ 10 mg/L) (TDM≤7d, LR-A + MR-A regimen): 18.3%
- target concentration achievement rate (≥ 10 mg/L) (TDM≤7d, LR-B + MR-A regimen): 24.1%
- target concentration achievement rate (≥ 10 mg/L) (TDM≤7d, LR-B + MR-B regimen): 57.2%
